Data on 3 compounds can be found in publication PMC4821105 (Pharmacognosy Research, 2016).

Assay [1] has as its target T1, PTP1B (Homo sapiens, UniProt P18031).
T1 sequence (P18031 1-435): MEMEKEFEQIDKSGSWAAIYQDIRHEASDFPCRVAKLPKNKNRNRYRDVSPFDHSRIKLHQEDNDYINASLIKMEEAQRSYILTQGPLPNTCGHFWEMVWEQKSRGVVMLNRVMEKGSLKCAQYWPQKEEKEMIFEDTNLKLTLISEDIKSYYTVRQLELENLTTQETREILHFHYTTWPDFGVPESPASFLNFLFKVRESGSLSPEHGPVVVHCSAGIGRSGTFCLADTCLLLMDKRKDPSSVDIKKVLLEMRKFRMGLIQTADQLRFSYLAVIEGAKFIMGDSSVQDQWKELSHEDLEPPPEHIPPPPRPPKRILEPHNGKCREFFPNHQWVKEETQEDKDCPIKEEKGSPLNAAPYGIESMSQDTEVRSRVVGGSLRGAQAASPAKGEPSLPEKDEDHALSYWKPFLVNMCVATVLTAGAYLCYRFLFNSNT
Briefly: Protein tyrosine phosphatase 1B inhibitory activity. Format: biochemical.

In assay [2] the target is T2, TCPTP (Homo sapiens, UniProt P17706).
T2 sequence (P17706 1-415): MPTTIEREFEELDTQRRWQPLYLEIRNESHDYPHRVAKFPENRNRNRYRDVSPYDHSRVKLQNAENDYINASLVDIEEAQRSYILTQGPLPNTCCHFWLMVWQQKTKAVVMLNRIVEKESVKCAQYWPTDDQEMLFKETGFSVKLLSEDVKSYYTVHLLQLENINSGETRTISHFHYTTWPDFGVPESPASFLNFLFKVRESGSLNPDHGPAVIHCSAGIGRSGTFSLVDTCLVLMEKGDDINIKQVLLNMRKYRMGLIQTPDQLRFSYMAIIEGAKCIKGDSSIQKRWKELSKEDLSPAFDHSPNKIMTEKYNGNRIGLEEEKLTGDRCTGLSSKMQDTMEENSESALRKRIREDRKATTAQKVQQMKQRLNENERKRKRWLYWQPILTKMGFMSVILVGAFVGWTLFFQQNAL
Briefly: T-cell protein tyrosine phosphatase inhibitory activity. It is filed as biochemical.

Assay [3] concerns the target T1, PTP1B. The settings on record: previous study of 28 medicinal plants; cited from earlier work.

As for `C=C(C)[C@@H]1CC[C@]2(C(=O)O)CC[C@]3(C)[C@H](CC[C@@H]4[C@@]5(C)CC[C@H](O)C(C)(C)[C@@H]5CC[C@]43C)[C@@H]12` [Compound 1, Betulinic acid], the IC50 (as a rule, the concentration needed to halve the response being measured) in assay [1] was 3.28 µM; in assay [2], 5.25 µM. Also, the inhibition at 10 µg/mL in assay [1] (read-out: PTP1B inhibited activity (%), 10 μg/mL, mean of triplicate) turned out to be 98%.
Turning to `CCCCCCCCCCCCCCCC(=O)C1=C(O)C(CO)OC1=O` (stereo not drawn) [RK-682, reference compound], the “PTP1B (IC50, μg/mL)” value in assay [1] (pNPP 2 mM, 37°C, 30 min) amounted to 2.05 µg/mL. Also, the “PTP1B IC50 (previous screening of Indonesian herbal medicines)” value in assay [3] was 2.05 µg/mL.
Regarding `C[C@H]1[C@H](C)CC[C@]2(C(=O)O)CC[C@]3(C)C(=CC[C@@H]4[C@@]5(C)CC[C@H](O)C(C)(C)[C@@H]5CC[C@]43C)[C@H]12` [Compound 2, ursolic acid], in assay [2], the IC50 is 6.79 µM.
